From patent US20250179066A1, “ZWITTERIONIC ANTIBACTERIAL COMPOUNDS” (Hoffmann-La Roche Inc., priority 2022, published 2025)

Test system: Acinetobacter baumannii ATCC17961
Test: Antimicrobial susceptibility testing: 90% growth inhibitory concentration (IC90) determination
Format: cell-based
Settings: Acinetobacter baumannii, ATCC17961, 16 h, 90% growth inhibitory concentration against Acinetobacter baumannii ATCC17961, Iso-Sensitest broth, OD 600 nm over 16 h; read-out: ATCC 17961 IC90
How it was run: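 Twofold serial dilutions (e.g. 10 to 0.0195 μM final) in Iso-Sensitest broth inoculated at ~5×10^5 CFU/mL, incubated at 35±2° C. OD600 read every minute for 16 h; IC90 is the concentration inhibiting 90% of growth during logarithmic phase.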

IC90 [nM] | SMILES
203 | Cn1c(-c2cn(-c3ccc4[nH]c(CCO)cc4n3)nc2C(F)(F)F)cnc1C(=O)Nc1ccc(C(=O)N2CCN(C(=O)[C@H]3CC[N@+](CC(=O)O)(CC4CNC4)CC3)CC2)c(Cl)c1 [Example 162, cis-2-[1-(azetidin-3-ylmethyl)-4-[4-[2-chloro-4-[[5-[1-[2-(2-hydroxyethyl)-1H-pyrrolo[3,2-b]pyridin-5-yl]-3-(trifluoromethyl)pyrazol-4-yl]-1-methyl-imidazole-2-carbonyl]amino]benzoyl]piperazine-1-carbonyl]piperidin-1-ium-1-yl]acetic acid;formate]
190 | Cn1c(-c2cn(-c3ccc(O)cc3F)nc2C(F)(F)F)cnc1C(=O)Nc1ccc(C(=O)N2CCN(C(=O)[C@H]3CC[N@+](CC(=O)O)(CC4CNC4)CC3)CC2)c(Cl)c1 [Example 163, cis-2-[1-(azetidin-3-ylmethyl)-4-[4-[2-chloro-4-[[5-[1-(2-fluoro-4-hydroxy-phenyl)-3-(trifluoromethyl)pyrazol-4-yl]-1-methyl-imidazole-3-carbonyl]amino]benzoyl]piperazine-1-carbonyl]piperidin-1-ium-1-yl]acetic acid. 1:1 2,2,2-trifluoroacetate]
163 | Cn1c(-c2cn(-c3ccc(NCC(C)(C)O)cc3F)nc2C(F)(F)F)cnc1C(=O)Nc1ccc(C(=O)N2CCN(C(=O)[C@H]3CC[N@+](CC(=O)O)(CC4CNC4)CC3)CC2)c(Cl)c1 [Example 164, cis-2-[1-(azetidin-3-ylmethyl)-4-[4-[2-chloro-4-[[5-[1-[2-fluoro-4-[(2-hydroxy-2-methyl-propyl)amino]phenyl]-3-(trifluoromethyl)pyrazol-4-yl]-1-methyl-imidazole-2-carbonyl]amino]benzoyl]piperazine-1-carbonyl]piperidin-1-ium-1-yl]acetic acid;formate]
649 | Cn1c(-c2cn(-c3ncc4[nH]ccc4n3)nc2C(F)(F)F)cnc1C(=O)Nc1ccc(C(=O)N2CCN(C(=O)[C@H]3CC[N@+](CC(=O)O)(CC4CNC4)CC3)CC2)c(Cl)c1 [Example 165, cis-2-[1-(azetidin-3-ylmethyl)-4-[4-[2-chloro-4-[[1-methyl-5-[1-(5H-pyrrolo[3,2-d]pyrimidin-2-yl)-3-(trifluoromethyl)pyrazol-4-yl]imidazole-2-carbonyl]amino]benzoyl]piperazine-1-carbonyl]piperidin-1-ium-1-yl]acetic acid;formate]
152 | Cn1c(-c2cn(-c3ccc(NCCN(CCN)CCN)cn3)nc2C(F)(F)F)cnc1C(=O)Nc1ccc(C(=O)N2CCN(C(=O)C3CC[N+](CC(=O)O)(CC4CNC4)CC3)CC2)c(Cl)c1 (stereo not drawn) [Example 166, cis-2-[1-(azetidin-3-ylmethyl)-4-[4-[4-[[5-[1-[5-[2-[bis(2-aminoethyl)amino]ethylamino]-2-pyridyl]-3-(trifluoromethyl)pyrazol-4-yl]-1-methyl-imidazole-2-carbonyl]amino]-2-chloro-benzoyl]piperazine-1-carbonyl]piperidin-1-ium-1-yl]acetic acid;formic acid;formate]
715 | Cn1c(-c2cn(-c3ccc4[nH]c(CC(N)=O)cc4n3)nc2C(F)(F)F)cnc1C(=O)Nc1ccc(C(=O)N2CCN(C(=O)[C@H]3CC[N@+](CC(=O)O)(CC4CNC4)CC3)CC2)c(Cl)c1 [Example 167, cis-2-[4-[4-[4-[[5-[1-[2-(2-amino-2-oxo-ethyl)-1H-pyrrolo[3,2-b]pyridin-5-yl]-3-(trifluoromethyl)pyrazol-4-yl]-1-methyl-imidazole-2-carbonyl]amino]-2-chloro-benzoyl]piperazine-1-carbonyl]-1-(azetidin-3-ylmethyl)piperidin-1-ium-1-yl]acetic acid;2,2,2-trifluoroacetate]
